The text below walks through data of patent US11007269B2, “P53 degradation inducing molecule and pharmaceutical composition” (Tokyo University of Science Foundation, priority 2016, dated 2021).

The target of the assay is T1, MDM2 protein (Mus musculus, UniProt P23804).
T1 construct: from tissue; host or cells: liver of C57BL/6J wild-type mice
The assay is described as follows: Western blot of MDM2 protein in liver of mice given the compound. Particulars: C57BL/6J mice, 48 hours after administration. The assay is classed as in vivo. The method, then:
In Example 4, degradation (knockdown) of the endogenous wild-type p53 protein and MDM2 protein in mouse individuals in which TIBC-CANDDY_MLN had been administered was evaluated by Western blot analysis.
TIBC-CANDDY_MLN was dissolved in DMSO immediately before administration, and then dissolved in corn oil (Code No. 25606-55, Nacalai Tesque) so that the concentration of DMSO was 10 vol %, and then a dose of 50 mg/kg body weight or 100 mg/kg body weight was administered intraperitoneally to C57BL/6J wild-type mice (7 to 8 weeks old, male) (CLEA Japan, Inc.) (n=3). As a control, an injection carrier (corn oil containing 10 vol % DMSO) was used. The mice were kept under an environment of ad libitum access to food and water. […]
The frozen tissue (0.04 g) was triturated, and then 980 μL of 1×TKM tissue lysis buffer (50 mM triethanolamine (pH 7.8), 50 mM KCl, 5 mM MgCl2, 0.25 M sucrose, 1 mM PMSF, protein inhibitors cocktail-EDTA free (Code No. 03969-21, Nacalai Tesque), 1 mM DTT, Recombinant RNase inhibitor 5 μl/mL (40 U/μl, Cat No. 2313A, Lot No. K8402DA, TAKARA Bio)) was added, and dissolved by rotation for 15 minutes (1 rpm, 25° C.). […] The concentration of proteins in the tissue extract was quantified with a spectrophotometer with the tissue extract that had been diluted 20 times using DEPC-treated water. […]
(In general: Immunoblotting shows a protein as a band on a membrane.)

T1 sequence (P23804 whole entry): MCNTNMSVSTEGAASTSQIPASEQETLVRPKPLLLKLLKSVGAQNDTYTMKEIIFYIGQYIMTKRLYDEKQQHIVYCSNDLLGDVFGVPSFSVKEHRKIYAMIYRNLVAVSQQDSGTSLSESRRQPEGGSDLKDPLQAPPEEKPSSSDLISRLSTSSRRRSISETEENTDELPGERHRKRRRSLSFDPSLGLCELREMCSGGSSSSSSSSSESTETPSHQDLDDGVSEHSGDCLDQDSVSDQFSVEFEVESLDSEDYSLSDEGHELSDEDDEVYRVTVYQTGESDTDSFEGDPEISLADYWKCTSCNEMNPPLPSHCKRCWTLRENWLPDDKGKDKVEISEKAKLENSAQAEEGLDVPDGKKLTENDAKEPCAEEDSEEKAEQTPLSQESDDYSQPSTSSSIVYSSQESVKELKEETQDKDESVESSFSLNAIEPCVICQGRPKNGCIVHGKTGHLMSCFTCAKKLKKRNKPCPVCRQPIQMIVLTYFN

As to `CC(C)C[C@H](NC(=O)CNC(=O)c1cc(Cl)ccc1Cl)C(=O)NCCCCCCC(=O)Nc1ccc(C(=O)/C=C/c2ccc(I)cc2)cc1` [TIBC-CANDDY_MLN], the “amount of MDM2 protein in the liver” value by setting is: (50 mg/kg body weight intraperitoneally) “reduced”; (100 mg/kg body weight intraperitoneally) “reduced”.
